In US12421238B2, “Selective dihydropyrrolopyrimidine JAK2 inhibitors” (CHENGDU JINRUI FOUNDATION BIOTECH CO., LTD., priority 2019, dated 2025):

Key:
[1] = Pharmacokinetic test in SD rats, intragastric administration; format: in vivo; conditions: rat, po, single intragastric administration, 25 mg/kg, plasma; for Cmax: read-out: Blood concentration Cmax; for AUC(0-t): read-out: Curve area AUClast; for half-life: read-out: Half life t1/2 (converted); for Tmax: read-out: Time to peak Tmax
Protocol: SD rats were used as the test animals.
Standard curve and preparation and processing of quality control samples:
Stock solution was diluted with 50% acetonitrile/water solution to obtain standard working solutions of 0.04, 0.10, 0.20, 0.40, 1.00, 2.00, 4.00 μg/mL, and quality control working solutions of 0.10, 1.00, 3.00 μg/mL. 2.50 μL of standard curve working solutions and quality control working solutions were added to 47.5 μL of blank rat plasma, respectively, to obtain standard curve solutions having analyte concentrations of 2.00, 5.00, 10.00, 20.00, 50.00, 100.00, 200.00 ng/mL and quality control samples having concentrations of 5.00, 50.00, and 150.00 ng/mL. 200 μL of acetonitrile (containing 5 ng/mL of the internal standard loratadine) was added. After vortexing for 3 minutes, the solutions were centrifuged at 15000 rpm at 4° C. for 15 minutes. 100 μL of the supernatant was taken for LC-MS/MS analysis. WinNonlin® 8.0 was used to calculate the experimental results.

JAK2 = JAK2 (Homo sapiens, UniProt O60674); test: Kinase activity test on JAK2 (Caliper EZ Reader conversion rate); conditions: for JAK1/JAK2 / JAK3/JAK2: ratio of IC50 values; for JAK1/JAK2: selectivity for JAK2 over JAK1; for JAK3/JAK2: selectivity for JAK2 over JAK3
[2] = Acute toxicity test, single oral administration to ICR mice (MTD); format: in vivo; conditions: ICR, mouse, in vivo, po, read-out: MTD (maximum tolerated dose)
ICR mice = test: as above; format: in vivo
JAK3 = target: T1, JAK3 (Homo sapiens, UniProt P52333); test: Kinase activity test on JAK3 (Caliper EZ Reader conversion rate)
T1 sequence (P52333 1-1124): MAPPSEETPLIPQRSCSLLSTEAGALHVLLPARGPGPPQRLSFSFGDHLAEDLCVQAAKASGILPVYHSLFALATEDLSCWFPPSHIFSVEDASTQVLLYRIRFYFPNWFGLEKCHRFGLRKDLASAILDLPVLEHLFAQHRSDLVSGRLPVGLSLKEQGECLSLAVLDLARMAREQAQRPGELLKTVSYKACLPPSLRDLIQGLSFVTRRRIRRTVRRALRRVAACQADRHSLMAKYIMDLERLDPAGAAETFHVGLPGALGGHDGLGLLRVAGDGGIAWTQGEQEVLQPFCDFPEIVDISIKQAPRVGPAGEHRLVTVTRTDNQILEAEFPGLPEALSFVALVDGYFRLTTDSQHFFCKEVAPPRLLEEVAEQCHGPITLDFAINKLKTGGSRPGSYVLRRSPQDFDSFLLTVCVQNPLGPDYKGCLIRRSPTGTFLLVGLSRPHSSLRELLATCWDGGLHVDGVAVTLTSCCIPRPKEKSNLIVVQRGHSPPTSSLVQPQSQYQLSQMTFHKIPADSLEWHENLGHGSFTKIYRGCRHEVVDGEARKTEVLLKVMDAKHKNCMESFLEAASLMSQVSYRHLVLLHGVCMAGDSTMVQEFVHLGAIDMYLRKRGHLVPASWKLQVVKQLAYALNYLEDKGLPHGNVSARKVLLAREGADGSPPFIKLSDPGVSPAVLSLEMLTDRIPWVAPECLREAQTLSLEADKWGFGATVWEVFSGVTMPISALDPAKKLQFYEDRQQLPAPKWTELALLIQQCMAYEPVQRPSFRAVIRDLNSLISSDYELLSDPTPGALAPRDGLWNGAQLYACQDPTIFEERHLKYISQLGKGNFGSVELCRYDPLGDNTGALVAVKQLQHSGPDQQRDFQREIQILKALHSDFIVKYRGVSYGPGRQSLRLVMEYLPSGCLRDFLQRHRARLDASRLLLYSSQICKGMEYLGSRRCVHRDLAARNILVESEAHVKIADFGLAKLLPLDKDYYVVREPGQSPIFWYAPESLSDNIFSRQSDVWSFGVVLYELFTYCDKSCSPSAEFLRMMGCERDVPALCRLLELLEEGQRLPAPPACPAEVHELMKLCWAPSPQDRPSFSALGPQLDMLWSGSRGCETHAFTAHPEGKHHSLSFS

JAK1 = JAK1 (Homo sapiens, UniProt P23458); test: Kinase activity test on JAK1 (Caliper EZ Reader conversion rate)
TF-1 = TF-1 cell proliferation experiment (CellTiter Glo); format: cell-based; conditions: Homo sapiens; TF-1 cells, 72 hours; read-out: TF-1 (μM), proliferation inhibition
HEL92.1.7 = HEL92.1.7 cell proliferation experiment (Cell Titer-Glo); format: cell-based; conditions: Homo sapiens, HEL 92.1.7; HEL92.1.7 cells, 72 hours

Sequence of JAK2 (O60674 whole entry): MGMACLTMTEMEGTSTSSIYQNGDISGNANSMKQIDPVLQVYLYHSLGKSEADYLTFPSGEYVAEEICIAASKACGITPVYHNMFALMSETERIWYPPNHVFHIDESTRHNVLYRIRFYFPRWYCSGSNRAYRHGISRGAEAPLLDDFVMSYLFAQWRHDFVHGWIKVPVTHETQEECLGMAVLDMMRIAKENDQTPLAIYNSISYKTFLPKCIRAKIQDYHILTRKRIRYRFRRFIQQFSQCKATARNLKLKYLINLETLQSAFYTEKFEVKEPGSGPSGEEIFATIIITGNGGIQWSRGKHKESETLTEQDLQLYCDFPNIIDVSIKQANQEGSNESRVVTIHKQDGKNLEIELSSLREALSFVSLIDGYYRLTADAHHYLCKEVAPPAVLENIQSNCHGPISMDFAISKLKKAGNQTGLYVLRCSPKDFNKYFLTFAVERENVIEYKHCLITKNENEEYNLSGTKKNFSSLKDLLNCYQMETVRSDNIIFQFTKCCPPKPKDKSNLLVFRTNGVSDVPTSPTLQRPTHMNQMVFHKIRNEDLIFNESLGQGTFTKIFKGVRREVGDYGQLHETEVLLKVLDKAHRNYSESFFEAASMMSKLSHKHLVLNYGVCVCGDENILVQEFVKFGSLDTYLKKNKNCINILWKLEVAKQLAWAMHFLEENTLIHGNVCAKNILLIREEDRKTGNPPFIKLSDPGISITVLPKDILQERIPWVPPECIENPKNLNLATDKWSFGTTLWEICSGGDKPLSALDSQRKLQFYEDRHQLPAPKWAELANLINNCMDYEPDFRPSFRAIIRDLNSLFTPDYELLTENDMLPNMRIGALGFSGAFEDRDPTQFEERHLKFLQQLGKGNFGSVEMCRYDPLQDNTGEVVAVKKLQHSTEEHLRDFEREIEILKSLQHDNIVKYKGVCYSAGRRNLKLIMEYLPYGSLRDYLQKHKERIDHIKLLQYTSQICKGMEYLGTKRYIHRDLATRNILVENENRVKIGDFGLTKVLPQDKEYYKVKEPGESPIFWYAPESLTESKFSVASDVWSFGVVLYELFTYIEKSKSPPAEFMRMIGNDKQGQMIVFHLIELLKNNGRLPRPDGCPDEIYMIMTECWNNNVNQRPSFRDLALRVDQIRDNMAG
Sequence of JAK1 (P23458 whole entry): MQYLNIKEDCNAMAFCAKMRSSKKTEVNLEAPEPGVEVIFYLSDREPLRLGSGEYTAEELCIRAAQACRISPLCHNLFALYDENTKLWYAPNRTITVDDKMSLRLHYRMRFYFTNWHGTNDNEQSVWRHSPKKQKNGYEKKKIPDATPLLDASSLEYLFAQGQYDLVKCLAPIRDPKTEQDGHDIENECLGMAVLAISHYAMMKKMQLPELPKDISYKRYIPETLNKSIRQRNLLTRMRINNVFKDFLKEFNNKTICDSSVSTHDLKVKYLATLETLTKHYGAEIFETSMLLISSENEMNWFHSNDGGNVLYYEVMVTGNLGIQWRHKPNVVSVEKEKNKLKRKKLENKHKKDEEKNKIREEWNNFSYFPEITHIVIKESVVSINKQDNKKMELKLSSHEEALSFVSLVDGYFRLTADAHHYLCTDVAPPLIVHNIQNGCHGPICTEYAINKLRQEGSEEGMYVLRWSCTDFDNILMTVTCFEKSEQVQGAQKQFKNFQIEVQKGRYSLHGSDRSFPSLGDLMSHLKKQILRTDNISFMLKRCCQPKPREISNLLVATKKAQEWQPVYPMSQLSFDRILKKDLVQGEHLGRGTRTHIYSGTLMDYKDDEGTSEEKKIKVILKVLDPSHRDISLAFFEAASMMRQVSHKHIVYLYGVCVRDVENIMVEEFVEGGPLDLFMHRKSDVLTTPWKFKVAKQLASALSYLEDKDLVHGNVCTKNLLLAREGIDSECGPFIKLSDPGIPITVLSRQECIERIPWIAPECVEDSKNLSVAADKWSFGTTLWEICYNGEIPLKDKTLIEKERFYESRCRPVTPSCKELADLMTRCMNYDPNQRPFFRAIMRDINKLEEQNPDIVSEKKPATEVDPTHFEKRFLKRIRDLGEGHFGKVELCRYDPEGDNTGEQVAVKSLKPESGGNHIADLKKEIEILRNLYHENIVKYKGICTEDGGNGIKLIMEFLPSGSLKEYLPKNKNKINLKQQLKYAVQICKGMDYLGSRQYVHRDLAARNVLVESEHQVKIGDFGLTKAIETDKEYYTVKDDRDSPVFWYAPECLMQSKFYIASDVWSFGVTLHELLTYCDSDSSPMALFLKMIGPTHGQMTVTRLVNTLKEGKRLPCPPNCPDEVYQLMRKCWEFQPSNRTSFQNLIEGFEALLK

Compound	Cmax [1] [ng/mL]	AUC(0-t) [1] [ng·h/mL]	half-life [1] [h]	Tmax [1] [h]	IC50 (JAK2) [nM]	JAK1/JAK2 (JAK2)	JAK3/JAK2 (JAK2)	MTD at 6 days [2] [mg/kg]	MTD (maximum tolerated dose) (ICR mice) [mg/kg]	IC50 (JAK3) [nM]	IC50 (JAK1) [nM]	IC50 (TF-1) [µM]	IC50 (HEL92.1.7) [µM]
CN1CCN(CCOc2ccc(Nc3ncc4c(n3)N(c3cccc(S(=O)(=O)NC(C)(C)C)c3)CC4)cc2)CC1 [Compound I-4]	1100	807	6.2	1.5	1.2	87	850	≥ 1000	1000	1020	105	0.18	0.34
CN1CCN(c2ccc(Nc3ncc4c(n3)N(c3cccc(S(=O)(=O)NC(C)(C)C)c3)CC4)cc2)CC1 [Compound I-15]	1240	934	6.8	1.5	0.73	99	819	> 2000	>2000	598	72	0.12	0.17
CC(C)(C)NS(=O)(=O)c1cccc(N2CCc3cnc(Nc4ccc(OC5CCNCC5)cc4)nc32)c1 [Compound I-19]	1120	935	6.2	1.5	0.9	134	1689	≥ 1000	1500	1520	121	0.17	0.21
CC(C)(C)NS(=O)(=O)c1cccc(N2CCc3cnc(Nc4ccc(C5CCNCC5)cc4)nc32)c1 [Compound I-20]	1030	912	6.3	2	1	130	1433	> 2000	>2000	1430	130	0.19	0.25
